Reference: patent US20250213627A1, “RECOMBINANT MICROORGANISM-BASED METHODS AND COMPOSITIONS FOR TREATMENT OF DISEASE” (Baylor College of Medicine, priority 2021, published 2025)

Columns and labels:
[1] = Thermal stability of peptide
[2] = test system: DTH reaction mediated by antigen-specific TEM lymphocytes; assay: Active delayed-type hypersensitivity (DTH) reaction against ovalbumin in the ear; assay type: in vivo, rat
Protocol: Then, it was assessed if LrS235 gavage could reduce a delayed-type hypersensitivity (DTH) reaction in the ear of rats, a local autoinflammation mediated by antigen-specific TEM lymphocytes. […] In contrast, treatment with LrGusA, capsules filled with ShK-235 or gelatin, and supernatants from the culture of the LrS235 had no effects on inflammation.
Induction and monitoring of an active delayed-type hypersensitivity reaction. Male and female rats were immunized in the flanks with 200 μl of a 1:1 emulsion of ovalbumin (Sigma, St. Louis, MO) in complete Freund's adjuvant (Difco/Becton Dickinson, Franklin Lakes, NJ)(25). After 7 days, under isoflurane anesthesia, the rats were challenged with ovalbumin dissolved in saline in the pinna of one ear; the collateral ear was injected with saline (49). Rats received either a single subcutaneous injection of 0.1 mg/kg ShK-235 or P6N vehicle, a single oral gavage of 1×10^9 cfus LrS235 or LrGusA, oral gavage of 1 ml supernatant of LrS235, or a capsule filled with ShK-235 or gelatin immediately before the ear challenge. The DTH reaction was measured 24 hours post-challenge as the thickness of the ear using a spring-loaded micrometer (Mitutoyo, Japan) and ear inflammation was determined by comparing the ear thickness of the ovalbumin-challenged with the saline-challenged ear from each (49). The animals were euthanized after the ear measurements.

[3] = Bioavailability and pharmacokinetics of ShK-235 in circulation of healthy rats; assay type: in vivo, rat
Protocol: To test whether the intestinal environment interferes with LrS235 secretion of ShK-235, or prevents it from crossing into the circulation, healthy rats were gavaged with a single bolus of 1×10^9 CFU of either LrGusA or LrS235, both after SppIP induction, and 6 hours later, sera was collected and the ability of serum samples to block Kv1.3 channels tested by whole-cell patch-clamp.
Sera was taken at various timepoints ranging from 3 hours to 72 hours after the single bolus of LrS235. Peak levels of ShK-235 were detected 6 hours after LrS235 delivery, with the range of functional activity from 3 hours to 48 hours post-gavage (FIG. 8C).
Bioavailability and pharmacokinetics of ShK-235 after oral delivery. Male rats received a single oral gavage of either 1×10^9 cfus LrS235 or an enteric-coated capsule filled with ShK-235. Blood was collected via the saphenous vein at the different time points indicated in the figure, the last blood draw being a terminal cardiac puncture (48). Serum samples were assayed for Kv1.3 block by patch-clamp electrophysiology.

[4] = test system: ShK-235 neutralizing antibodies; assay: Antibody neutralization assay with CIA rat serum; assay type: cell-based; settings: CIA rat serum samples
Protocol: To test if ShK-235 produced by LrS235 is immunogenic, the sera of rats were assessed at the end of the 21-day CIA trial shown in FIG. 8 for anti-ShK-235 IgG by ELISA assay. Plates coated with collagen II and HsTX1[R14A] were used as controls. HsTX1[R14A] is another peptide blocker of Kv1.3 with no sequence or structural homology to ShK-235.
Antibody neutralization assays. […] It was then added to the PBMCs loaded with CELLTRACE™ Violet (C34557, ThermoFisher, MA, US), and T cells proliferation was assessed as described above.

Kv1.3 = Kv1.3 (Mus musculus, UniProt P16390); assay: Block of Kv1.3 channel, reported potency; assay type: cell-based; settings: FIGS. 5A-5B; n=4 cells per concentration
Chain of Kv1.3 (P16390 whole entry): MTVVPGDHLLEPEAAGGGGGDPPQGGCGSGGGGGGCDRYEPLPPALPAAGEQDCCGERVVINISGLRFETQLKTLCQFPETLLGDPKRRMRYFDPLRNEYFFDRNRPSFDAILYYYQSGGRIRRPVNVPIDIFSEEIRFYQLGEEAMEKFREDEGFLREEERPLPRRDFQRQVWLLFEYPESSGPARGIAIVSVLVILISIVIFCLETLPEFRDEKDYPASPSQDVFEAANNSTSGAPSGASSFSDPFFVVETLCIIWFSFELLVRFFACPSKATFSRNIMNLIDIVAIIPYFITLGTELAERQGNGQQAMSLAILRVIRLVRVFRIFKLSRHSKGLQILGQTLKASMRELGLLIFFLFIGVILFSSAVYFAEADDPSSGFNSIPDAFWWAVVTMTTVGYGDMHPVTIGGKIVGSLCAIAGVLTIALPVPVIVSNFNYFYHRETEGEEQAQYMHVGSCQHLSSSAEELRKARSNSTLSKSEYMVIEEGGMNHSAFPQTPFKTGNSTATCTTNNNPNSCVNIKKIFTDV

[5] = test system: collagen-induced arthritis (CIA) in Lewis rats; assay: Collagen-induced arthritis (CIA) treatment trial; assay type: in vivo, rat
Protocol: Starting at onset of clinical signs, four groups of rats received ˜1×10^9 CFU of either LrGusA or LrS235, both after SppIP induction for 2.5 hr, by daily oral gavage, or P6N vehicle or synthetic ShK-235 by injection in the scruff of the neck every other day.
Induction, monitoring, randomization, and treatment of rat collagen-induced arthritis. CIA was induced as described previously (46, 50). Briefly, female Lewis rats received a subcutaneous injection of 200 μl of a 1:1 emulsion of 2 mg/ml porcine type II collagen (20031, Chondrex, Redmond, WA) with incomplete Freund's adjuvant at the base of the tail. After 7 days, rats were given a booster of 100 μl of collagen and adjuvant emulsion. Disease onset was defined as the development of at least one swollen or red paw joint. Clinical scores were determined daily by assigning 1 point for each swollen or red toe joint, 2 points for mildly swollen wrist or ankle joints, and 5 points for each severely swollen wrist or ankle, giving each rat a maximum possible score of 60. Upon disease onset, rats were treated every other day by the subcutaneous injection of P6N buffer vehicle or 0.1 mg/kg ShK-235, or the oral gavage of 1×10^9 cfus LrGusA or 1×10^9 cfus LrS235 daily. CIA is more severe in rats with early disease onset. To avoid biasing results based on disease severity on the day each rat developed signs of disease and accounting for differences in the time between immunization and when a rat developed signs of illness, every rat that developed signs of disease on a given day was placed in a different treatment group to fill all groups in parallel.
Histology and micro-CT. Healthy rats and rats from the CIA trials were euthanized after 21 days of treatment, and their hind paws were collected and fixed in 10% buffered formalin. One paw from each rat was imaged by Micro-CT using a Bruker SkyScan 1272 Scanner set at 13 μm resolution with no filtering, no averaging, and a rotation step of 0.3. Raw images were analyzed with CTvox (Bruker, MA, US). The other hind paw was decalcified, embedded in paraffin, and sectioned. Slides were stained with either hematoxylin and eosin or Safranin O/Fast green and imaged at 4× magnification on a Nikon Ci-L bright-field microscope (Nikon Inc. NY, US). Scoring of the slides was completed by an investigator blinded to treatment groups using a comprehensive histological scoring system as described elsewhere (46, 51), in which cartilage degradation, cartilage erosion, angiogenesis, pannus formation, synovial hyperplasia, and synovial inflammation were evaluated by the following criteria: 0=absent, 1=mild, 2=moderate, 3=severe. The data were presented as mean±standard deviation.

CC[C@H](C)[C@@H]1NC(=O)[C@H](CO)NC(=O)[C@H](Cc2c[nH]cn2)NC(=O)[C@H](CCCCN)NC(=O)[C@@H]2CSSC[C@@H]3NC(=O)[C@H]([C@@H](C)O)NC(=O)[C@H](CCCCN)NC(=O)[C@H](CCCNC(=N)N)NC(=O)[C@H](CSSC[C@H](NC(=O)[C@H](CCCNC(=N)N)NC(=O)[C@H](CO)NC(=O)[C@H](CCCCN)NC(=O)[C@@H]4CCCN4C(=O)[C@H]([C@@H](C)CC)NC(=O)[C@H]([C@@H](C)O)NC(=O)[C@H](CC(=O)O)NC(=O)[C@H]([C@@H](C)CC)NC(=O)[C@@H](NC(=O)[C@H](CO)NC(=O)[C@@H](N)CCCNC(=N)N)CSSC[C@@H](C(=O)N[C@@H](C)C(=O)O)NC(=O)[C@H]([C@@H](C)O)NC(=O)CNC3=O)C(=O)N[C@@H]([C@@H](C)O)C(=O)N[C@@H](C)C(=O)N[C@@H](Cc3ccccc3)C(=O)N[C@@H](CCCCN)C(=O)N2)NC(=O)[C@H](Cc2ccccc2)NC(=O)[C@H](CO)NC(=O)[C@H](CC(C)C)NC(=O)[C@H](CCCNC(=N)N)NC(=O)[C@H](Cc2ccc(O)cc2)NC(=O)[C@H](CCCCN)NC1=O [ShK-235]
Temperature stability [1]: up to 80 °C | Effect on ear inflammation ([2]; oral enteric-coated capsule filled with ShK-235): no effects | Reduction of ear inflammation compared with vehicle control ([2]; single subcutaneous injection 0.1 mg/kg): 58% | Serum levels of ShK-235 after enteric-coated capsule ([3]; oral ACRYL-EZE coated capsule filled with 0.3 mg ShK-235): no measurable serum levels | level at time molar ([3]; rat, in vivo, injection of 0.1 mg/kg, read-out: Level detected in the circulation after injection): 0.6 to 0.8 nM | Neutralization of ShK-235 by serum [4]: no neutralization | IC50 (Kv1.3): 0.062 nM | Mean clinical score of arthritis ([5]; 21 days from onset, bacteria ~1×10^9 CFU daily oral gavage, synthetic ShK-235 0.1 mg/kg s.c. every other day, max score 60): 11±3 | Joint histology parameters (cartilage degradation and erosion, angiogenesis, pannus, synovial hyperplasia and inflammation) ([5]; end of trial): significantly reduced all parameters | Micro-CT imaging of hind limbs (bone erosion) ([5]; end of trial): better-preserved bones | Reduction of mean clinical score compared to vehicle control ([5]; same regimens as mean score): ~60%
